These results are taken from US11326168B2, “Use of potassium channel inhibitor for treating depression” (ZHEJIANG UNIVERSITY, priority 2017, dated 2022).

The test system of the first assay is LHb neurons. The assay is classed as cell-based.
Details: not given
As to `[Ba+2].[Cl-].[Cl-]` [BaCl2], the “firing frequency of bursting neurons” value was “dramatic increase”.

The same assay, now with this note: BaCl2 100 μM, about 10 min bath perfusion.
Consider `[Ba+2].[Cl-].[Cl-]` [BaCl2], for which the “RMPs of tonic and burst-firing LHb neurons” value is recorded as “depolarized”.

The next assay deals with T1, Kir4.1 (Homo sapiens, UniProt P78508).
T1 sequence (P78508 1-379): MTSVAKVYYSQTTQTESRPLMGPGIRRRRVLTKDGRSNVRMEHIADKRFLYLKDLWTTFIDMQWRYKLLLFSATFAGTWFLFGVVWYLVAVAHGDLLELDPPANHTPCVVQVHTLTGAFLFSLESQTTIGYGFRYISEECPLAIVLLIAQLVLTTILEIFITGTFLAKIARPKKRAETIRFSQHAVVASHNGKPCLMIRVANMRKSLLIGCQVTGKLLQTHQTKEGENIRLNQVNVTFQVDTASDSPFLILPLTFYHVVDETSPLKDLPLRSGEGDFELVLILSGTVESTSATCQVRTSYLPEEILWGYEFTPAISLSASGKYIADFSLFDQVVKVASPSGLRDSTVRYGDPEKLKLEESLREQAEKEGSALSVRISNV
As to conditions: Ohno et al., 2007; Wang et al., 2006; Kharade et al., 2018; cited from earlier work.
Regarding `CNCCC=C1c2ccccc2CCc2ccccc21` [nortriptyline], the “Kir4.1 inhibition (literature statement)” value is given as “inhibit Kir4.1, yet with lower affinity”.
`CN[C@H]1CC[C@@H](c2ccc(Cl)c(Cl)c2)c2ccccc21` [sertraline]: the “Kir4.1 inhibition (literature statement)” value was “inhibit Kir4.1, yet with lower affinity”.
In the case of `CNCCCN1c2ccccc2CCc2ccccc21` [desipramine], the “Kir4.1 inhibition (literature statement)” value is reported as “inhibit Kir4.1, yet with lower affinity”.
As for `CC(C)c1ccc(OCC(=O)NC2CC(C)(C)NC(C)(C)C2)c(Br)c1` [VU0134992], the “Kir4.1 inhibition (literature statement)” value is “highly selective and specific Kir4.1 inhibitor”.
As to `CNCCC(Oc1ccc(C(F)(F)F)cc1)c1ccccc1` (stereo not shown) [fluoxetine], the “Kir4.1 inhibition (literature statement)” value was “inhibit Kir4.1, yet with lower affinity”.
As to `CN(C)CCC=C1c2ccccc2CCc2ccccc21` [amitriptyline], the “Kir4.1 inhibition (literature statement)” value is given as “inhibit Kir4.1, yet with lower affinity”.
On to `CN(C)CCCN1c2ccccc2CCc2ccccc21` [imipramine], for which the “Kir4.1 inhibition (literature statement)” value is listed as “inhibit Kir4.1, yet with lower affinity”.
With `COCCCC/C(=N\OCCN)c1ccc(C(F)(F)F)cc1` [fluvoxamine], the “Kir4.1 inhibition (literature statement)” value is on record as “inhibit Kir4.1, yet with lower affinity”.
